{"source": "patent US20200254059A1", "about": "“THERAPEUTIC AGENT OF UREMIA CONTAINING ALARIN AS THE MAIN INGREDIENT” (JU TIDE CO., LTD., priority 2017, published 2020)", "assay_type_in_all_cases": "in vivo", "key": {"[1]": {"experiment": "Body weight in cisplatin-induced uremia Sprague-Dawley rat model", "settings": "all test substance-administered groups (10 and 20 μg/head, single IV dose 8 h after cisplatin 5 mg/kg IP); Day 7; versus normal control group", "quoted_text": "Cisplatin-induced uremia was evaluated for the effect of administration of test substance on an improvement of uremia in the Sprague-Dawley rat model. […] Cisplatin was intraperitoneally administered (IP) and test substance was intravenously administered (IV)."}, "Cisplatin-induced uremia [2]": {"test_system": "Cisplatin-induced uremia", "experiment": "Blood biochemical test (serum BUN and CRE) in cisplatin-induced uremia Sprague-Dawley rat model", "procedure": "(§1) The intravenous administration was done by fixing an animal into a correction frame, and slowly injecting at a rate of within 1 mL/min through the micro vein using a syringe equipped with 26 gauges needle. The intraperitoneal administration was performed by fixing the animal by a transdormal skin fixation method and intraperitoneally injecting using a syringe equipped with 26 gauges needle.\nSerum obtained from the centrifugation was tested for blood urea nitrogen (BUN) and […] (CRE) using a blood biochemical analyzer (7180 Hitachi, Japan)."}, "Cisplatin-induced uremia [3]": {"test_system": "Cisplatin-induced uremia", "experiment": "Kidney histopathological examination in cisplatin-induced uremia Sprague-Dawley rat model", "procedure": "as §1\nFinally, animals were inhaled with ether on an necropsy day to anesthetize and euthanize, and kidneys were extracted and fixed in a 10% neutral buffered formalin solution, and the fixed tissues were cut, dehydrated, paraffin embedded and hematoxylin & eosin stained to make a specimens for histopathological examination after these histological treatment. And then, the obtained specimen is subjected to speculum using an optical microscope (Olympus BX53, Japan)."}, "[4]": {"settings": "serum, high dose group (20 μg/1 mL/head, single IV), versus induced control group given excipient"}}, "note": "Entries after “also recorded” stand apart in the source; their conditions may differ.", "data": [{"substance": "H-Ala-Pro-Ala-His-Arg-Ser-Ser-Thr-Phe-Pro-Lys-Trp-Val-Thr-Lys-Thr-Glu-Arg-Gly-Arg-Gln-Pro-Leu-Arg-Ser-OH-trifluoroacetate salt (H-APAHRSSTFPKWVTKTERGRQPLRS-OH; also: trifluoroacetate salt) [test substance, human-derived alarin, peptide derived from a splice variant of galanin-like peptide (GALP) RNA]", "values": [{"measurement": "weight level measured on the day of necropsy", "setting": "[1]", "result": "no significant difference"}, {"measurement": "improvement of uremia (overall conclusion)", "setting": "Cisplatin-induced uremia [2]; cisplatin-induced uremia model, conclusion from blood biochemistry and histopathology", "result": "have an effect on the improvement of uremia"}, {"measurement": "blood urea nitrogen (BUN) level", "setting": "Cisplatin-induced uremia [2]; [4]", "result": "significantly lower; also recorded: significant difference"}, {"measurement": "creatinine (CRE) level", "setting": "Cisplatin-induced uremia [2]; [4]", "result": "significantly lower; also recorded: significant difference"}, {"measurement": "blood biochemical level", "setting": "Cisplatin-induced uremia [2]; single dose of 10 μg/1 mL/head and 20 μg/1 mL/head IV, versus control group of excipient", "result": "tendency to improve"}, {"measurement": "histopathological examination results, lesion level across doses", "setting": "Cisplatin-induced uremia [3]; 10 and 20 μg/1 mL/head, single IV dose", "result": "dose-related change trend and significant changes in lesion level"}, {"measurement": "level of lesion, histopathological examination of kidney", "setting": "Cisplatin-induced uremia [3]; high dose group (20 μg/head, single IV), H&E stained kidney, Day 7, versus control group", "result": "significantly lower"}]}]}
